In ChEMBL document CHEMBL4184318, “Identification of Fast-Acting 2,6-Disubstituted Imidazopyridines That Are Efficacious in the in Vivo Humanized Plasmodium falciparum NODscidIL2Rγ null Mouse Model of Malaria” (J Med Chem, 2018):
Converted amounts (≈) assume the structure as drawn.

Assays:
Mus musculus [1] = experiment: Dose normalized AUC (0 to 23 hrs) in NOD-scid IL-2Rgamma-null mouse model engrafted with Plasmodium falciparum 3D7 infected human erythrocytes at 25 mg/kg via oral gavage by LC-MS/MS method; assay type: ADME, organism-based; settings: in vivo
[2] = Kinetic solubility of the compound in HCl at pH 2 after 20 hrs by shake flask method; assay type: physicochemical; settings: read-out: Kinetic_solubility
[3] = Kinetic solubility of the compound in phosphate buffered saline at pH 6.5 after 20 hrs by shake flask method; assay type: physicochemical; settings: read-out: Kinetic_solubility
[4] = Kinetic solubility of the compound in FaSSIF at pH 6.5 after 20 hrs by shake flask method; assay type: physicochemical; settings: read-out: Kinetic_solubility
[5] = Drug metabolism in iv or po dosed Sprague-Dawley rat plasma assessed as oxidation of pyridine ring by LC-MS/MS method; assay type: ADME, organism-based; settings: in vivo
[6] = Drug metabolism in iv or po dosed Sprague-Dawley rat plasma assessed as oxidation of phenyl ring by LC-MS/MS method; assay type: ADME, organism-based; settings: in vivo
[7] = Volume of distribution in Sprague-Dawley rat at 5 mg/kg, iv administered as 2 mins of infusion by LC-MS/MS method; assay type: ADME, organism-based; settings: in vivo
[8] = Cmax in Sprague-Dawley rat at 20 mg/kg administered via oral gavage as bolus dose by LC-MS/MS method; assay type: ADME, organism-based; set-up: dose 20 mg/kg, route oral; settings: in vivo
[9] = Cmax in Sprague-Dawley rat at 5 mg/kg, iv administered as 2 mins of infusion by LC-MS/MS method; assay type: ADME, organism-based; set-up: dose 5 mg/kg, route intravenous; settings: in vivo
[10] = Cmax in BALB/c mouse at 10 mg/kg administered via oral gavage as bolus dose by LC-MS/MS method; assay type: ADME, organism-based; set-up: dose 10 mg/kg, route oral; settings: in vivo
[11] = Tmax in Sprague-Dawley rat at 20 mg/kg administered via oral gavage as bolus dose by LC-MS/MS method; assay type: ADME, organism-based; settings: in vivo
[12] = Tmax in BALB/c mouse at 10 mg/kg administered via oral gavage as bolus dose by LC-MS/MS method; assay type: ADME, organism-based; settings: in vivo
Rattus norvegicus [13] = experiment: Dose normalized AUC (0 to infinity) in Sprague-Dawley rat at 20 mg/kg administered via oral gavage as bolus dose by LC-MS/MS method; assay type: ADME, organism-based; settings: in vivo
Rattus norvegicus [14] = experiment: Dose normalized AUC (0 to infinity) in Sprague-Dawley rat at 5 mg/kg, iv administered as 2 mins of infusion by LC-MS/MS method; assay type: ADME, organism-based; settings: in vivo
Mus musculus [15] = experiment: Dose normalized AUC (0 to infinity) in BALB/c mouse at 10 mg/kg administered via oral gavage as bolus dose by LC-MS/MS method; assay type: ADME, organism-based; settings: in vivo
[16] = Oral bioavailability in Sprague-Dawley rat at 20 mg/kg administered via gavage as bolus dose by LC-MS/MS method; assay type: ADME, organism-based; settings: in vivo
[17] = Cmax in NOD-scid IL-2Rgamma-null mouse model engrafted with Plasmodium falciparum 3D7 infected human erythrocytes at 5 mg/kg administered via oral gavage measured over 23 hrs post first dose by LC-MS/MS method; assay type: ADME, organism-based; set-up: dose 5 mg/kg, route oral; settings: in vivo
[18] = Cmax in NOD-scid IL-2Rgamma-null mouse model engrafted with Plasmodium falciparum 3D7 infected human erythrocytes at 10 mg/kg administered via oral gavage measured over 23 hrs post first dose by LC-MS/MS method; assay type: ADME, organism-based; set-up: dose 10 mg/kg, route oral; settings: in vivo
[19] = Cmax in NOD-scid IL-2Rgamma-null mouse model engrafted with Plasmodium falciparum 3D7 infected human erythrocytes at 25 mg/kg administered via oral gavage measured over 23 hrs post first dose by LC-MS/MS method; assay type: ADME, organism-based; set-up: dose 25 mg/kg, route oral; settings: in vivo
[20] = Cmax in NOD-scid IL-2Rgamma-null mouse model engrafted with Plasmodium falciparum 3D7 infected human erythrocytes at 50 mg/kg administered via oral gavage measured over 23 hrs post first dose by LC-MS/MS method; assay type: ADME, organism-based; set-up: dose 50 mg/kg, route oral; settings: in vivo
Mus musculus [21] = experiment: Dose normalized Cmax in NOD-scid IL-2Rgamma-null mouse model engrafted with Plasmodium falciparum 3D7 infected human erythrocytes at 5 mg/kg administered via oral gavage measured over 23 hrs post first dose by LC-MS/MS method; assay type: ADME, organism-based; settings: in vivo
Mus musculus [22] = experiment: Dose normalized Cmax in NOD-scid IL-2Rgamma-null mouse model engrafted with Plasmodium falciparum 3D7 infected human erythrocytes at 10 mg/kg administered via oral gavage measured over 23 hrs post first dose by LC-MS/MS method; assay type: ADME, organism-based; settings: in vivo
Mus musculus [23] = experiment: Dose normalized Cmax in NOD-scid IL-2Rgamma-null mouse model engrafted with Plasmodium falciparum 3D7 infected human erythrocytes at 25 mg/kg administered via oral gavage measured over 23 hrs post first dose by LC-MS/MS method; assay type: ADME, organism-based; settings: in vivo
Mus musculus [24] = experiment: Dose normalized Cmax in NOD-scid IL-2Rgamma-null mouse model engrafted with Plasmodium falciparum 3D7 infected human erythrocytes at 50 mg/kg administered via oral gavage measured over 23 hrs post first dose by LC-MS/MS method; assay type: ADME, organism-based; settings: in vivo
[25] = Tmax in NOD-scid IL-2Rgamma-null mouse model engrafted with Plasmodium falciparum 3D7 infected human erythrocytes at 5 mg/kg administered via oral gavage measured over 23 hrs post first dose by LC-MS/MS method; assay type: ADME, organism-based; settings: in vivo
[26] = Tmax in NOD-scid IL-2Rgamma-null mouse model engrafted with Plasmodium falciparum 3D7 infected human erythrocytes at 10 mg/kg administered via oral gavage measured over 23 hrs post first dose by LC-MS/MS method; assay type: ADME, organism-based; settings: in vivo
[27] = Tmax in NOD-scid IL-2Rgamma-null mouse model engrafted with Plasmodium falciparum 3D7 infected human erythrocytes at 25 mg/kg administered via oral gavage measured over 23 hrs post first dose by LC-MS/MS method; assay type: ADME, organism-based; settings: in vivo
[28] = Tmax in NOD-scid IL-2Rgamma-null mouse model engrafted with Plasmodium falciparum 3D7 infected human erythrocytes at 50 mg/kg administered via oral gavage measured over 23 hrs post first dose by LC-MS/MS method; assay type: ADME, organism-based; settings: in vivo
[29] = AUC (0 to 23 hrs) in NOD-scid IL-2Rgamma-null mouse model engrafted with Plasmodium falciparum 3D7 infected human erythrocytes at 5 mg/kg administered via oral gavage by LC-MS/MS method; assay type: ADME, organism-based; set-up: dose 5 mg/kg, time < 23 hr, route oral; settings: in vivo
[30] = AUC (0 to 23 hrs) in NOD-scid IL-2Rgamma-null mouse model engrafted with Plasmodium falciparum 3D7 infected human erythrocytes at 10 mg/kg administered via oral gavage by LC-MS/MS method; assay type: ADME, organism-based; set-up: dose 10 mg/kg, time < 23 hr, route oral; settings: in vivo
[31] = AUC (0 to 23 hrs) in NOD-scid IL-2Rgamma-null mouse model engrafted with Plasmodium falciparum 3D7 infected human erythrocytes at 25 mg/kg administered via oral gavage by LC-MS/MS method; assay type: ADME, organism-based; set-up: time < 23 hr, dose 25 mg/kg, route oral; settings: in vivo
[32] = AUC (0 to 23 hrs) in NOD-scid IL-2Rgamma-null mouse model engrafted with Plasmodium falciparum 3D7 infected human erythrocytes at 50 mg/kg administered via oral gavage by LC-MS/MS method; assay type: ADME, organism-based; set-up: dose 50 mg/kg, time < 23 hr, route oral; settings: in vivo
Mus musculus [33] = experiment: Dose normalized AUC (0 to 23 hrs) in NOD-scid IL-2Rgamma-null mouse model engrafted with Plasmodium falciparum 3D7 infected human erythrocytes at 5 mg/kg administered via oral gavage by LC-MS/MS method; assay type: ADME, organism-based; settings: in vivo
Mus musculus [34] = experiment: Dose normalized AUC (0 to 23 hrs) in NOD-scid IL-2Rgamma-null mouse model engrafted with Plasmodium falciparum 3D7 infected human erythrocytes at 10 mg/kg administered via oral gavage by LC-MS/MS method; assay type: ADME, organism-based; settings: in vivo
Mus musculus [35] = experiment: Dose normalized AUC (0 to 23 hrs) in NOD-scid IL-2Rgamma-null mouse model engrafted with Plasmodium falciparum 3D7 infected human erythrocytes at 50 mg/kg administered via oral gavage by LC-MS/MS method; assay type: ADME, organism-based; settings: in vivo

An AUC/dose (Mus musculus [1]) of 1.632 µg·h/mL/mg/kg, a solubility kinetic at 20 h [2] of 13 µM (≈ 5.09 µg/mL) and a solubility kinetic at 20 h [3] of less than 5 µM were found for `Fc1ccc(Nc2cc3[nH]c(-c4ccc(F)c(C(F)(F)F)c4)nc3cn2)nc1` in this work. For the same molecule, the solubility kinetic at 20 h [4] was 50 to 100 µM (≈ 19.6 to 39.1 µg/mL), the Drug metabolism [5] was “Metabolite_Detected” and the Drug metabolism [6] was “Metabolite_Notdetected”. The Vd [7] was 2.3 L/kg, the Cmax [8] was 4.7 µM and the Cmax [9] was 5.4 µM. For the same molecule, the Cmax [10] was 4 µM, the Tmax [11] was 12 h and the Tmax [12] was 1.7 h. The AUC/dose (Rattus norvegicus [13]) was 5923 µM·min, the AUC/dose (Rattus norvegicus [14]) was 1692 µM·min and the AUC/dose (Mus musculus [15]) was 2622 µM·min. For the same molecule, the bioavailability [16] was 88%, the Cmax [17] was 573 ng/mL and the Cmax [18] was 1580 ng/mL. It also gave a Cmax [19] of 3090 ng/mL, a Cmax [20] of 4860 ng/mL and a Cmax/dose (Mus musculus [21]) of 0.115 µg/mL/mg/kg. It also gave a Cmax/dose (Mus musculus [22]) of 0.158 µg/mL/mg/kg, a Cmax/dose (Mus musculus [23]) of 0.155 µg/mL/mg/kg and a Cmax/dose (Mus musculus [24]) of 0.097 µg/mL/mg/kg. The Tmax [25] was 4 to 6 h, the Tmax [26] was 4 h and the Tmax [27] was 4 h. It also gave a Tmax [28] of 2 to 4 h, an AUC(0-t) at 23 h [29] of 6510 ng·h/mL and an AUC(0-t) at 23 h [30] of 16900 ng·h/mL. For the same molecule, the AUC(0-t) at 23 h [31] was 32600 ng·h/mL, the AUC(0-t) at 23 h [32] was 84100 ng·h/mL and the AUC/dose (Mus musculus [33]) was 1.302 µg·h/mL/mg/kg. It also gave an AUC/dose (Mus musculus [34]) of 1.686 µg·h/mL/mg/kg and an AUC/dose (Mus musculus [35]) of 1.681 µg·h/mL/mg/kg.
